Values quoted from earlier work as cited in US20260137743A1, “METHODS OF RELIEVING PAIN” (Infinitum Health, LLC, priority 2023, published 2026).

Conditions: isolated from Incarvillea sinensis

For `COc1cc([C@H]2[C@H](C(=O)O[C@@H]3C[C@@H]4[C@@H](CN(C)C[C@@H]4C)[C@@H]3C)[C@H](c3ccc(O)c(OC)c3)[C@H]2C(=O)O[C@@H]2C[C@@H]3[C@@H](CN(C)C[C@@H]3C)[C@@H]2C)ccc1O` [Incarvillateine, incarvillateine], the “analgesic (pain relief) activity” value is given as “significant analgesic (pain relief) activity”.
